From patent US20130165396A1, “Apple Skin Extracts for Treating Cardiovascular Disease” (NATIONAL RESEARCH COUNCIL OF CANADA, priority 2010, published 2013)
Marks after values point to notes of the source that are not given here.

How the values were obtained:
Format in all cases: biochemical
[1] = test system: LDL isolated from human plasma; assay: In vitro LDL oxidation inhibition, statements covering both induction systems or both product types; conditions: for Pro-oxidant effect (statement): 5-50 mg L^−1
Method: (§1) Two oxidation induction methods were used: copper sulfate and 2,2′-azobis(2-methylpropionamidine)dihydrochloride (AAPH). For both induction systems, 100 μg/mL of final LDL protein concentration was used. LDL was oxidized at the presence of 10 μM final concentration of Cu^2+and 5 mM final concentration of AAPH separately at 37° C. for 4 h in the dark. […] Oxidation was terminated by adding a 1:1 mixture of 1 mM solution of ethylenediaminetetraacetic acid (EDTA) and 1 mM solution of butylated hydroxytoluene (BHT).
(§2) Two main constituents of TAE and oleanolic acid, which is an isomer of ursolic acid, were also used to investigate the concentration-responsiveness. The same concentrations of Cu^2+ and AAPH were used and the oxidation was terminated by a 1:1 mixture of EDTA and BHT as explained earlier under this section.
TBARS were measured according to the method of Xu et al., J. Food Sci., 2007, 72: S522-S527 with slight modifications. […]. The mixture was incubated at 95° C. for 30 min to develop a pink chromogen. After cooling to room temperature tubes were centrifuged at 1500 g for 15 min and the fluorescence was measured using the FLUOstar OPTIMA plate reader (BMG Labtech Inc. Canada). Excitation and emission wavelengths used were 532 and 590 nm, respectively. TBARS activity was expressed as the percent inhibition (Equation 1) of LDL oxidation with comparison to the positive control, where F is fluorescence:
The formation of hydroperoxides was measured by the lipid compatible formulation of the Peroxoquant™ quantitative peroxide assay kit. LDL oxidation was induced by Cu^2+ or AAPH and incubated for 4 hrs at 37° C. in the dark. Hydroperoxides were measured following the manufacturer's instructions. Absorbance was measured at 595 nm using FLUOstar OPTIMA plate reader (BMG Labtech, Durham, N.C., USA). Activity of hydroperoxides was expressed as the percent inhibition of LDL with comparison to the positive control (Equation 1).

[2] = test system: LDL isolated from human plasma; assay: TBARS assay, AAPH-induced LDL oxidation
Method: (§3) To remove the inherent antioxidants, purchased LDL was dialyzed using Fisherbrand cellulose dialysis tubing (type T3 membrane, Thermo Fisher Scientific Inc., Ottawa, ON, Canada) against PBS containing 0.138 M NaCl and 0.0027 M KCl (pH 7.4, at 25° C.) at 4° C. for 24 hours. The buffer was changed every six hours. The dialyzed LDL was immediately used or stored at −80° C. in the dark under nitrogen and used within two to three weeks. Protein content of the dialyzed LDL was measured by the Lowry's method (Lowry et al., J. Biol. Chem., 1951, 193: […]) using bovine serum albumin as the standard.
as §1, §2
(§4) TBARS were measured according to the method of Xu et al., J. Food Sci., 2007, 72: S522-S527 with slight modifications. […] The mixture was incubated at 95° C. for 30 min to develop a pink chromogen. After cooling to room temperature tubes were centrifuged at 1500 g for 15 min and the fluorescence was measured using the FLUOstar OPTIMA plate reader (BMG Labtech Inc. Canada). Excitation and emission wavelengths used were 532 and 590 nm, respectively. TBARS activity was expressed as the percent inhibition (Equation 1) of LDL oxidation with comparison to the positive control, where F is fluorescence:
(§5) Percent inhibition (%)=100(Fpositive control−Fsample)/(Fpositive control) (1)

[3] = test system: LDL isolated from human plasma; assay: TBARS assay, Cu2+-induced LDL oxidation
Method: as §3, §1, §2, §4, §5

[4] = 50 mg L^−1, comparison of constituent compounds and metabolites (Table 4)

SMILES	Pro-oxidant effect (statement) [1]	Percent inhibition of secondary LDL oxidation products, AAPH induction ([2]; 0.0005 mg L^−1)	Percent inhibition of secondary LDL oxidation products, AAPH induction ([2]; 0.001 mg L^−1)	Percent inhibition of secondary LDL oxidation products, AAPH induction ([2]; 0.005 mg L^−1)	Percent inhibition of secondary LDL oxidation products, AAPH induction ([2]; 0.01 mg L^−1)	Percent inhibition of secondary LDL oxidation products, AAPH induction ([2]; 0.5 mg L^−1)	Percent inhibition of secondary LDL oxidation products, AAPH induction ([2]; 1 mg L^−1)	Percent inhibition of secondary LDL oxidation products, AAPH induction ([2]; 5 mg L^−1)	Percent inhibition of secondary LDL oxidation products, AAPH induction ([2]; 10 mg L^−1)	Percent inhibition of secondary LDL oxidation products, AAPH induction ([2]; 25 mg L^−1)	Percent inhibition of secondary LDL oxidation products, AAPH induction ([2]; 50 mg L^−1)	Percent inhibition of secondary LDL oxidation products, AAPH induction [2, 4]	Percent inhibition of secondary LDL oxidation products, Cu induction ([3]; 0.0005 mg L^−1)	Percent inhibition of secondary LDL oxidation products, Cu induction ([3]; 0.005 mg L^−1)	Percent inhibition of secondary LDL oxidation products, Cu induction ([3]; 0.01 mg L^−1)	Percent inhibition of secondary LDL oxidation products, Cu induction ([3]; 0.5 mg L^−1)	Percent inhibition of secondary LDL oxidation products, Cu induction ([3]; 1 mg L^−1)	other results
O=C(O)[C@H]1O[C@@H](Oc2c(-c3ccc(O)c(O)c3)oc3cc(O)cc(O)c3c2=O)[C@H](O)[C@@H](O)[C@@H]1O [Quercetin-3-glucuronic acid]	did not show any pro-oxidant effect	11.79 ± 2.10^f %	26.29 ± 1.68^d %	24.12 ± 1.53^de %	−1.96 ± 3.37^g %	4.32 ± 1.18^fg %	13.31 ± 1.79^ef %	55.17 ± 0.33^c %	80.74 ± 3.27^a %	66.69 ± 2.41^b %	72.00 ± 0.97^ab %	74.24 ± 1.36^d %	10.73 ± 1.68^e %	15.68 ± 2.22^e %	14.85 ± 0.80^e %	71.09 ± 1.34^c %	88.59 ± 0.21^b %	Protection against LDL oxidation, quercetin metabolites (statement) ([1]; 50 mg L^−1): best protection; Percent inhibition of secondary LDL oxidation products, Cu induction ([3]; 0.001 mg L^−1): 23.06 ± 2.97^d %; Percent inhibition of secondary LDL oxidation products, Cu induction ([3]; 5 mg L^−1): 90.37 ± 2.31^b %; Percent inhibition of secondary LDL oxidation products, Cu induction ([3]; 10 mg L^−1): 94.2 ± 31.32^ab %; Percent inhibition of secondary LDL oxidation products, Cu induction ([3]; 25 mg L^−1): 95.24 ± 0.71^ab %; Percent inhibition of secondary LDL oxidation products, Cu induction ([3]; 50 mg L^−1): 98.64 ± 0.47^a %; Percent inhibition of secondary LDL oxidation products, Cu induction [3, 4]: 49.40 ± 2.04^d %
O=c1c(O)c(-c2ccc(O)c(O)c2)oc2cc(O)cc(O)c12 [Quercetin]	did not show any pro-oxidant effect	13.41 ± 0.67^e %	28.18 ± 2.19^d %	23.17 ± 1.48^d %	16.71 ± 1.18^e %	46.78 ± 0.85^c %	66.41 ± 0.83^b %	86.62 ± 2.00^a %	90.20 ± 0.63^a %	92.04 ± 0.51^a %	91.90 ± 0.69^a %	85.06 ± 1.23^c %	13.97 ± 2.56^d %	8.07 ± 3.33^de %	4.62 ± 1.03^e %	75.68 ± 1.31^c %	85.87 ± 1.55^b %	Protection for AAPH induced LDL oxidation ([2]; beyond 5 mg L^−1): more than 80%; Protection for Cu2+ induced LDL oxidation ([3]; beyond 1 mg L^−1): more than 80%
